Measured values reported in patent US6020334A, “Piperazinones, their production and use” (Takeda Chemical Industries, Ltd., priority 1995, dated 2000).

System: platelet aggregation by ADP
Assay: Platelet aggregation in vitro (inhibition of ADP-induced aggregation of guinea pig PRP, Born's method)
Format: cell-based, guinea pigs
Details: Cavia porcellus, ADP 0.6-1 μM, 37° C.
Description: Determination of Platelet Aggregation in Vitro
Blood was collected from abdominal aorta of guinea pigs under anesthesia with pentobarbital (20 mg/kg, i.p.) using sodium citrate as an anticoagulant (final concentration: 0.315%). The sodium citrate--supplemented blood was centrifuged at 950 rpm for 10 minutes and 2,000 rpm for 10 minutes respectively at room temperature to obtain platelet rich plasma (PRP) and platelet poor plasma (PPP). The number of platelet was counted an automatic platelet counter (Sysmex E2500, Toaiyo-denshi). PRP was diluted with PPP to adjust the number of platelets to be 500,000/μl. Platelet aggregation was measured as follows, in accordance with Born's method (Nature 194: 927, 1962), using an 8-channel aggregometer (NBS HEMA TRACER VI, Niko Bioscience Inc.): The PRP (250 μl) was incubated at 37° C. for 2 minutes, to which was then added 25 μl of a test drug solution. Two minutes later, 25 μl of an agent (ADP) for causing agglutination. The effect of the test drug was shown by the inhibition rate of the maximum aggregation rate of the test group against that of the control group. ADP was used in the minimum concentration (0.6-1 μM) capable of obtaining maximum aggregation.

Row | Compound | IC50
1 | N=C(N)c1ccc(C(=O)NCC(=O)N2CCN(CC(=O)O)C(=O)[C@@H]2CCCN)cc1 [compound 1] | 520 nM
2 | N=C(N)c1ccc(C(=O)NCCC[C@H]2C(=O)N(CC(=O)O)CCN2C(=O)CNC(=O)c2ccc(C(=N)N)cc2)cc1 [compound 2] | 37 nM
3 | COc1ccc(C[C@H](NC(=O)c2ccc(C(=N)N)cc2)C(=O)N2CCN(CC(=O)O)C(=O)[C@@H]2CCCN)cc1 [compound 5] | 16 nM
4 | COc1ccc(C[C@H](NC(=O)c2ccc(C(=N)N)cc2)C(=O)N2CCN(CC(=O)O)C(=O)[C@@H]2CCCNC(=O)c2ccc(C(=N)N)cc2)cc1 [compound 6] | 20 nM
5 | COc1ccc(C[C@H](NC(=O)c2ccc(C(=N)N)cc2)C(=O)N2CCN(CC(=O)O)C(=O)[C@@H]2CCCCN)cc1 [compound 7] | 19 nM
6 | COc1ccc(C[C@H](NC(=O)c2ccc(C(=N)N)cc2)C(=O)N2CCN(CC(=O)O)C(=O)[C@@H]2CCCCNC(=O)c2ccc(C(=N)N)cc2)cc1 [compound 8] | 12 nM
7 | N=C(N)c1ccc(C(=O)NCC(=O)N2CCN(CC(=O)O)C(=O)[C@@H]2CCCNC(=O)CCCCCN)cc1 [compound 9] | 180 nM
8 | N=C(N)c1ccc(C(=O)NCC(=O)N2CCN(CC(=O)O)C(=O)[C@@H]2CCCNC(=O)CCCCN)cc1 [compound 10] | 200 nM
9 | N=C(N)c1ccc(C(=O)NCC(=O)N2CCN(CC(=O)O)C(=O)[C@@H]2CCCNC(=O)CCCN)cc1 [compound 11] | 230 nM
10 | COc1ccc(C[C@H](NC(=O)c2ccc(C(=N)N)cc2)C(=O)N2CCN(CC(=O)O)C(=O)[C@@H]2CCCCNC(=N)N)cc1 [compound 12] | 25 nM
11 | N=C(N)NCCCC(=O)NCCC[C@H]1C(=O)N(CC(=O)O)CCN1C(=O)CNC(=O)c1ccc(C(=N)N)cc1 [compound 13] | 110 nM
12 | N=C(N)Nc1ccc(C(=O)NCCC[C@H]2C(=O)N(CC(=O)O)CCN2C(=O)CNC(=O)c2ccc(NC(=N)N)cc2)cc1 [compound 15] | 51 nM
13 | N=C(N)Nc1ccc(C(=O)NCC[C@H]2C(=O)N(CC(=O)O)CCN2C(=O)CNC(=O)c2ccc(C(=N)N)cc2)cc1 [compound 16] | 44 nM
14 | N=C(N)c1ccc(C(=O)NCC(=O)N2CCN(CC(=O)O)C(=O)[C@@H]2CN)cc1 [compound 17] | 240 nM
15 | N=C(N)c1ccc(C(=O)NCC(=O)N2CCN(CC(=O)O)C(=O)[C@@H]2CNC(=O)c2ccc(C(=N)N)cc2)cc1 [compound 18] | 130 nM
16 | N=C(N)c1ccc(C(=O)NCC[C@H]2C(=O)N(CC(=O)O)CCN2C(=O)CNC(=O)c2ccc(C(=N)N)cc2)cc1 [compound 19] | 180 nM
17 | N=C(N)c1ccc(C(=O)NCCC[C@@H]2C(=O)N(CC(=O)O)CCN2C(=O)CNC(=O)c2ccc(C(=N)N)cc2)cc1 [compound 22] | 3800 nM
18 | N=C(N)Nc1ccc(C(=O)NCCC[C@H]2C(=O)N(CC(=O)O)CCN2C(=O)CNC(=O)c2ccc(C(=N)N)cc2)cc1 [compound 23] | 17 nM
19 | N=C(N)c1ccc(NC(=O)CC[C@H]2C(=O)N(CC(=O)O)CCN2C(=O)CNC(=O)c2ccc(C(=N)N)cc2)cc1 [compound 24] | 250 nM
20 | N=C(N)Cc1ccc(C(=O)NC[C@H]2C(=O)N(CC(=O)O)CCN2C(=O)CNC(=O)c2ccc(C(=N)N)cc2)cc1 [compound 25] | 54 nM
21 | N=C(N)NCc1ccc(C(=O)NC[C@H]2C(=O)N(CC(=O)O)CCN2C(=O)CNC(=O)c2ccc(C(=N)N)cc2)cc1 [compound 26] | 84 nM
22 | COc1ccc(C[C@H](NC(=O)c2ccc(C(=N)N)cc2)C(=O)N2CCN(CC(=O)O)C(=O)[C@@H]2CCCNC(=O)CCCCCN)cc1 [compound 27] | 18 nM
23 | COc1ccc(C[C@H](NC(=O)c2ccc(C(=N)N)cc2)C(=O)N2CCN(CC(=O)O)C(=O)[C@@H]2CCCCNC(=O)CN)cc1 [compound 28] | 19 nM
24 | COC(=O)ON=C(N)c1ccc(C(=O)NCCC[C@H]2C(=O)N(CC(=O)O)CCN2C(=O)CNC(=O)c2ccc(C(N)=NOC(=O)OC)cc2)cc1 [compound 30] | 19000 nM
25 | COC(=O)ON=C(N)c1ccc(C(=O)NCCC[C@H]2C(=O)N(CC(=O)O)CCN2C(=O)CNC(=O)c2ccc(C(=N)N)cc2)cc1 [compound 31] | 190 nM
26 | N=C(N)c1ccc(C(=O)NCCC[C@H]2C(=O)N(CC(=O)O)CCN2C(=O)CNC(=O)c2ccc(CCN)cc2)cc1 [compound 32] | 53 nM

System: not listed separately
Assay: Bleeding time in guinea pigs (continuous intravenous infusion, Simplate R incision)
Format: in vivo
Details: 2 μg/kg/min, continuous i.v. infusion for 90 minutes
Description: (§1) Bleeding Time in Guinea Pigs and Determination of Ex Vivo Platelet Aggregation Inhibitory Action
(§2) Male Hartley guinea pigs (body weight: about 400 g) were employed. These animals were intravenously infused continuously, under anesthesia with pentobarbital, with a physiological saline solution or receptor-antagonistdissolved in the solution at a dose of 10 μl/kg/min.
After the continuous infusion for 90 minutes, the thigh of each animal was applied with a rubber cuff and charged with 40 mmHg, then given an incised sound with Simplate R (Organon Teknika). Thereafter, at 30 sec. each interval, blood was absorbed into a filter paper. The time until no more blood was absorbed into the filter paper was measured. The bleeding time of normal five guinea pigs was about 276 sec.

Row | Compound | Bleeding time
27 | N=C(N)c1ccc(C(=O)NCCC[C@H]2C(=O)N(CC(=O)O)CCN2C(=O)CNC(=O)c2ccc(C(=N)N)cc2)cc1 [compound 2] | 308 ± 33 s

Same assay, conditions: 3 μg/kg/min, continuous i.v. infusion for 90 minutes

Row | Compound | Bleeding time
28 | N=C(N)Nc1ccc(C(=O)NCCC[C@H]2C(=O)N(CC(=O)O)CCN2C(=O)CNC(=O)c2ccc(NC(=N)N)cc2)cc1 [compound 15] | 250 ± 26 s

System: ex vivo platelet aggregation
Assay: Ex vivo platelet aggregation inhibitory action (PRP of infused guinea pigs, ADP)
Format: in vivo
Details: 2 μg/kg/min, continuous i.v. infusion for 90 minutes, ADP 0.5 to 1 μM
Description: as §1, §2
After 90 minutes of the continuous infusion, blood was collected from abdominal aorta using sodium citrate (whole blood:3.15% citric acid solution=9:1 by volume). […]
Platelet aggregation was measured by using an 8-channel photo-extinction type platelet aggregometer (NBS/HEMA TRACER 801, Niko Bioscience). […] The PRP was set in the aggregometer and incubated for two minutes at 37° C., to which was added 20 μl of ADP (0.5 to 1 μM), and the changes of transmittance were recorded. The difference of PRP and PPP in photo-extinction was assumed 100%, and, with the maximum photo-extinction rates, the maximum aggregation rates (%) were determined. The effects of the drugs were determined by comparing the maximum aggregation rates (%) of animals continuously infused with a physiological saline solution with those of animals continuously infused with receptor antagonist.

Row | Compound | Inhibitory rate (ex vivo platelet aggregation inhibition)
29 | N=C(N)c1ccc(C(=O)NCCC[C@H]2C(=O)N(CC(=O)O)CCN2C(=O)CNC(=O)c2ccc(C(=N)N)cc2)cc1 [compound 2] | 100%

Same assay, conditions: 3 μg/kg/min, continuous i.v. infusion for 90 minutes, ADP 0.5 to 1 μM

Row | Compound | Inhibitory rate (ex vivo platelet aggregation inhibition)
30 | N=C(N)Nc1ccc(C(=O)NCCC[C@H]2C(=O)N(CC(=O)O)CCN2C(=O)CNC(=O)c2ccc(NC(=N)N)cc2)cc1 [compound 15] | 100%
